Data reported in ChEMBL document CHEMBL1132840, “Benzylidene ketal derivatives as M2 muscarinic receptor antagonists” (Bioorg Med Chem Lett, 2000).

How the values were obtained:
[1] = biological target: Muscarinic acetylcholine receptors; M1 & M2 (Homo sapiens) (UniProt P11229+P08172); test: Selectivity ratio for M1 muscarinic receptor compared to M2 muscarinic receptor.; type: protein assay
[2] = biological target: Muscarinic acetylcholine receptors; M2 & M3 (Homo sapiens) (UniProt P20309+P08172); test: Selectivity ratio for M3 muscarinic receptor compared to M2 muscarinic receptor.; type: protein assay
[3] = biological target: T1, Muscarinic acetylcholine receptor M2 (Homo sapiens, UniProt P08172); test: Binding affinity at human cloned acetylcholine receptor M2 in CHO cells.; type: cell-based
T1 sequence (P08172 whole entry): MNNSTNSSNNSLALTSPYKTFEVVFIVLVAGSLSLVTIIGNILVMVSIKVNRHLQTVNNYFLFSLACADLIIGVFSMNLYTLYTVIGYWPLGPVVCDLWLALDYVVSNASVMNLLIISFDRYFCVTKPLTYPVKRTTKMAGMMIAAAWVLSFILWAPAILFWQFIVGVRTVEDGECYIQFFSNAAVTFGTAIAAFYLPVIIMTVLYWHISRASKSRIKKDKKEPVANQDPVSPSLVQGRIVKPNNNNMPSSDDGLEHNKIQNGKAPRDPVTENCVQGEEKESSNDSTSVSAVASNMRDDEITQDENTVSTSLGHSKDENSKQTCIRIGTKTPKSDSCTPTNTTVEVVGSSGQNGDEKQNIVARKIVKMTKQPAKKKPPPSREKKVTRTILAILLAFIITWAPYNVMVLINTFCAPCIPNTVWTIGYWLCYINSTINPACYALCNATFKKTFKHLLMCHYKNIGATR

Muscarinic acetylcholine receptors; M1 & M2 (Homo sapiens), sequence (P11229 whole entry, looked up, one chain of several): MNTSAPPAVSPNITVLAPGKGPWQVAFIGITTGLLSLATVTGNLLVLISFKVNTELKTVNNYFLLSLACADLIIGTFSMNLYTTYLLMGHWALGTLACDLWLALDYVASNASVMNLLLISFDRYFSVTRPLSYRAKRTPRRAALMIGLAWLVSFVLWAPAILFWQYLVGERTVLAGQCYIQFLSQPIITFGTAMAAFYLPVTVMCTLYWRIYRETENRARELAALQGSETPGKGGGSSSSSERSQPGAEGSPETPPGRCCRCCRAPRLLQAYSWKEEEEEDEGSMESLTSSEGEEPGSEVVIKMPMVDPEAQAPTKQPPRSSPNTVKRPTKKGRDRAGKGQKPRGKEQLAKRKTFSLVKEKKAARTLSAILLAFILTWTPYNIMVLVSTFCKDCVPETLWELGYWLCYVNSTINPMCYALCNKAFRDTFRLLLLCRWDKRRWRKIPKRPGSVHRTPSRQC

Structure (SMILES) | Ratio [1] | Ratio [2] | Ki [3] [nM]
CCOC(=O)N1CCC(N2CCC(C3(c4ccc(S(=O)(=O)c5ccc(OC)cc5)cc4)OCCCO3)CC2)CC1 | 21 | 14.4 | 0.72
CCCS(=O)(=O)N1CCC(N2CCC(C3(c4ccc(S(=O)(=O)c5ccc6c(c5)OCO6)cc4)OCCO3)CC2)CC1 | 102 | 93 | –
CCCS(=O)(=O)N1CCC(N2CCC(C(=O)c3ccc(S(=O)(=O)c4ccc5c(c4)OCO5)cc3)CC2)CC1 | 42.6 | 93.4 | 1.02
CCCS(=O)(=O)N1CCC(N2CCC(C3(c4ccc([S+]([O-])c5ccc6c(c5)OCO6)cc4)CCCO3)CC2)CC1 (centres undefined) | 0.49 | 0.5 | 12.1
CCOC(=O)N1CCC(N2CCC(C3(c4ccc(S(=O)(=O)c5ccc6c(c5)OCO6)cc4)OCCO3)CC2)CC1 | 4.1 | 1.3 | 0.073
CCCS(=O)(=O)N1CCC(N2CCC(C3(c4ccc([S+]([O-])c5ccc6c(c5)OCO6)cc4)OCCO3)CC2)CC1 (centres undefined) | 10.8 | 10 | 0.823
CCCS(=O)(=O)N1CCC(N2CCC(C3(c4ccc(S(=O)(=O)c5ccc6c(c5)OCO6)cc4)SCCS3)CC2)CC1 | 62.6 | 57.4 | 0.031
CCOC(=O)N1CCC(N2CCC(C3(c4ccc(S(=O)(=O)c5ccc6c(c5)OCO6)cc4)O[C@@H](C)[C@H](C)O3)CC2)CC1 | 10.2 | 6.1 | 1.82
CCCS(=O)(=O)N1CCC(N2CCC(C3(c4ccc([S+]([O-])c5ccc6c(c5)OCO6)cc4)O[C@H](C)[C@@H](C)O3)CC2)CC1 (some centres undefined) | 7.5 | 12.9 | 9.09
CCOC(=O)N1CCC(N2CCC(C3(c4ccc(S(=O)(=O)c5ccc(OC)cc5)cc4)OCCO3)CC2)CC1 | 28.3 | 7.1 | 0.16
CCCS(=O)(=O)N1CCC(N2CCC(C3(c4ccc(S(=O)(=O)c5ccc6c(c5)OCO6)cc4)CCCO3)CC2)CC1 (centres undefined) | 0.22 | 0.24 | 5.07
CCCS(=O)(=O)N1CCC(N2CCC(C3(c4ccc([S+]([O-])c5ccc6c(c5)OCO6)cc4)SCCS3)CC2)CC1 (centres undefined) | 10.7 | 12.8 | 0.82
C=C(c1ccc(S(=O)(=O)c2ccc(OC)cc2)cc1)C1CCN(C2CCN(C(=O)OCC)CC2)CC1 | 68.3 | 21.9 | 0.07
CCCS(=O)(=O)N1CCC(N2CCC(C3(c4ccc(S(=O)(=O)c5ccc6c(c5)OCO6)cc4)O[C@H](C)[C@@H](C)O3)CC2)CC1 | 8.7 | 46.1 | 1.22
CCOC(=O)N1CCC(N2CCC(C(=O)c3ccc(S(=O)(=O)c4ccc(OC)cc4)cc3)CC2)CC1 | 26.8 | 10.2 | 2.91
CCOC(=O)N1CCC(N2CCC(C(=O)c3ccc(S(=O)(=O)c4ccc5c(c4)OCO5)cc3)CC2)CC1 | 47.6 | 7.5 | 0.13
CCOC(=O)N1CCC(N2CCC(C3(c4ccc(S(=O)(=O)c5ccc(OC)cc5)cc4)SCCCS3)CC2)CC1 | 4.4 | 2.9 | 14.3
CCOC(=O)N1CCC(N2CCC(C3(c4ccc(S(=O)(=O)c5ccc(OC)cc5)cc4)SCCS3)CC2)CC1 | 22.5 | 3 | 0.11
CCCS(=O)(=O)N1CCC(N2CCC(C(=O)c3ccc([S+]([O-])c4ccc5c(c4)OCO5)cc3)CC2)CC1 (centres undefined) | 4.6 | 11.8 | 34.8
CCOC(=O)N1CCC(N2CCC(C3(c4ccc(S(=O)(=O)c5ccc6c(c5)OCO6)cc4)O[C@H](C)[C@@H](C)O3)CC2)CC1 | 21.7 | 46 | 0.03
